What was measured:
Format in all cases: in vivo
[1] = test system: Amaranthus retoflexus (AMARE); experiment: Post-emergence herbicidal glasshouse test, AMARE; design: dose or concentration left out as unconfirmed; details: evaluated after 13 days, five-point scale
Procedure: (§1) Seeds of a variety of test species are sown in standard soil in pots (Lolium perenne (LOLPE), Amaranthus retoflexus (AMARE), Abutilon theophrasti (ABUTH), Setaria faberi (SETFA), Echinochloa crus-galli (ECHCG), Ipomoea hederacea (IPOHE)). After cultivation for one day (pre-emergence) or after 8 days cultivation (post-emergence) under controlled conditions in a glasshouse (at 24/16° C., day/night; 14 hours light; 65% humidity), the plants are sprayed with an aqueous spray solution derived from the formulation of the technical active ingredient in acetone/water (50:50) solution containing 0.5% Tween 20 (polyoxyethelyene sorbitan monolaurate, CAS RN 9005-64-5). Compounds are applied at 125 g/h unless otherwise indicated. The test plants are then grown in a glasshouse under controlled conditions in a glasshouse (at 24/16° C., day/night; 14 hours light; 65% humidity) and watered twice daily. After 13 days for pre and post-emergence, the test is evaluated for the percentage damage caused to the plant. The biological activities are shown in the following table on a five-point scale (5=80-100%; 4=60-79%; 3=40-59%; 2=20-39%; 1=0-19%). “—” denotes not tested on this species or data not captured.

Setaria faberi (SETFA) [2] = experiment: Post-emergence herbicidal glasshouse test, SETFA; details: 125 g/h, evaluated after 13 days, five-point scale
Procedure: as §1

[3] = test system: Echinochloa crus-galli (ECHCG); experiment: Post-emergence herbicidal glasshouse test, ECHCG; details: 125 g/h, evaluated after 13 days, five-point scale
Procedure: as §1

[4] = test system: Ipomoea hederacea (IPOHE); experiment: Post-emergence herbicidal glasshouse test, IPOHE; details: 125 g/h, evaluated after 13 days, five-point scale
Procedure: as §1

[5] = test system: Amaranthus retoflexus (AMARE); experiment: Pre-emergence herbicidal glasshouse test, AMARE; details: 125 g/h, evaluated after 13 days, five-point scale
Procedure: as §1

Setaria faberi (SETFA) [6] = experiment: Pre-emergence herbicidal glasshouse test, SETFA; details: 125 g/h, evaluated after 13 days, five-point scale
Procedure: as §1

[7] = test system: Echinochloa crus-galli (ECHCG); experiment: Pre-emergence herbicidal glasshouse test, ECHCG; details: 125 g/h, evaluated after 13 days, five-point scale
Procedure: as §1

[8] = test system: Ipomoea hederacea (IPOHE); experiment: Pre-emergence herbicidal glasshouse test, IPOHE; details: 125 g/h, evaluated after 13 days, five-point scale
Procedure: as §1

Row | SMILES | percentage damage caused to the plant, POST Application AMARE [1] | percentage damage caused to the plant, POST Application SETFA (Setaria faberi (SETFA) [2]) | percentage damage caused to the plant, POST Application ECHCG [3] | percentage damage caused to the plant, POST Application IPOHE [4] | percentage damage caused to the plant, PRE Application AMARE [5] | percentage damage caused to the plant, PRE Application SETFA (Setaria faberi (SETFA) [6]) | percentage damage caused to the plant, PRE Application ECHCG [7] | percentage damage caused to the plant, PRE Application IPOHE [8]
1 | COC(=O)Nc1c(OC(F)(F)F)ccc(C(=O)Nc2nnnn2C)c1C [Compound 1.035] | 5 (5=80-100%) | 5 (5=80-100%) | 5 (5=80-100%) | 3 (3=40-59%) | 5 (5=80-100%) | 5 (5=80-100%) | 5 (5=80-100%) | 3 (3=40-59%)
2 | CCOC(=O)Nc1c(OC(F)(F)F)ccc(C(=O)Nc2nnnn2C)c1C [Compound 1.036] | 5 (5=80-100%) | 5 (5=80-100%) | 5 (5=80-100%) | 5 (5=80-100%) | 5 (5=80-100%) | 5 (5=80-100%) | 5 (5=80-100%) | 5 (5=80-100%)
3 | Cn1nnnc1NC(=O)c1ccc(OC(F)F)c(N2CCOC2=O)c1Cl [Compound 1.037] | 5 (5=80-100%) | 5 (5=80-100%) | 5 (5=80-100%) | 5 (5=80-100%) | 5 (5=80-100%) | 5 (5=80-100%) | 5 (5=80-100%) | 5 (5=80-100%)
4 | CCOC(=O)N(C)c1c(OC(F)F)ccc(C(=O)Nc2nnnn2C)c1Cl [Compound 1.041] | 5 (5=80-100%) | 5 (5=80-100%) | 5 (5=80-100%) | 5 (5=80-100%) | 5 (5=80-100%) | 4 (4=60-79%) | 5 (5=80-100%) | 4 (4=60-79%)
5 | COC(=O)N(C)c1c(OC(F)F)ccc(C(=O)Nc2nnnn2C)c1Cl [Compound 1.042] | 5 (5=80-100%) | 5 (5=80-100%) | 5 (5=80-100%) | 5 (5=80-100%) | 5 (5=80-100%) | 5 (5=80-100%) | 5 (5=80-100%) | 4 (4=60-79%)
6 | CCN(C(=O)OC)c1c(OC(F)F)ccc(C(=O)Nc2nnnn2C)c1Cl [Compound 1.043] | 5 (5=80-100%) | 5 (5=80-100%) | 5 (5=80-100%) | 4 (4=60-79%) | 5 (5=80-100%) | 5 (5=80-100%) | 5 (5=80-100%) | 3 (3=40-59%)
7 | CCOC(=O)N(CC)c1c(OC(F)F)ccc(C(=O)Nc2nnnn2C)c1Cl [Compound 1.044] | 5 (5=80-100%) | 5 (5=80-100%) | 5 (5=80-100%) | 4 (4=60-79%) | 5 (5=80-100%) | 4 (4=60-79%) | 5 (5=80-100%) | 2 (2=20-39%)
